Source: patent US20120046308A1, “NOVEL ALPHA-PHENOXYBENZENEACETIC ACID DERIVATIVE AND PHARMACEUTICAL PREPARATION COMPRISING SAME” (KOWA COMPANY, LTD., priority 2009, published 2012)

Biological target: T1, human PPARγ2 (Homo sapiens, UniProt P37231)
T1 construct: the amino acids 182 to 505 of human PPARγ2; expressed in transfected cells; host or cells: COS7 cells (African green monkey kidney)
T1 sequence (P37231 182-505): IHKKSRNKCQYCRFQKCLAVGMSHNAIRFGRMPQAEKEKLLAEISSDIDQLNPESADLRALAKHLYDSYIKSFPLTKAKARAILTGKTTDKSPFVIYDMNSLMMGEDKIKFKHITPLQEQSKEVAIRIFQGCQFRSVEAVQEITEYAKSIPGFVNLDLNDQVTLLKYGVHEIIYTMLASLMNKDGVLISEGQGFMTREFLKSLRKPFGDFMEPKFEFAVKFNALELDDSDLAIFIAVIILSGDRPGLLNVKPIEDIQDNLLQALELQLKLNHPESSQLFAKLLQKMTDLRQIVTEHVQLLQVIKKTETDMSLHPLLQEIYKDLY
Experiment: PPARγ activation activity, Gal4-PPARγ2 LBD luciferase transfection assay using COS7 cells
Type: cell-based
Conditions: for EC50: COS7 cells, 16 hours, luciferase activity relative to rosiglitazone = 100%, read-out: EC50; for Emax: COS-7, 16 h, maximum activity strength relative to the maximum activity of rosiglitazone, read-out: % MAX vs Rosiglitazone
Experimental: The agonistic activity of the compounds of the invention on PPARγ was measured based on the transfection assay using COS7 cells (DS Pharma Biomedical Co., Ltd., Osaka, Japan), which are the cell line derived from the kidney of the African green monkey. COS7 cells were cultured under 5% CO2 concentration, and DMEM medium containing 10% fetal bovine serum, glutamic acid, and antibiotics was used as a medium.
As an expression vector, a chimera in which DNA binding domain of Gal4, which is a yeast transcription factor, and ligand binding domain of human PPARγ2 are fused, i.e., a fused product between the amino acids 1 to 147 of Gal4 transcription factor and the amino acids 182 to 505 of human PPARγ2, was used. Furthermore, as a reporter vector, a firefly luciferase containing five copies of Gal4 recognition sequence in the promoter region was used. Plasmid transfection to the cells was performed according to a method which uses jetPEI (trade name, manufactured by Funakoshi Co., Ltd., Tokyo, Japan). Furthermore, β-galactosidase expression vector was employed as an internal standard.
After the transfection of the cells, the medium was replaced with a DMEM medium (containing 1% serum) added with the compound, and the cells were further cultured for 16 hours. After that, the luciferase activity and β-galactosidase activity in the cell lysis solution were measured.
For the present test, dimethyl sulfoxide (DMSO) was used for dissolution and dilution of the test compounds, and during the cell treatment, the DMSO concentration in DMEM medium (containing 1% serum) was adjusted to 0.1%. As a positive compound, rosiglitazone (trade name, manufactured by ALEXIS Corporation, Switzerland) was used. The luciferase activity (%) of the test compounds (1 to 30 μmol/L) was calculated when the luciferase activity of rosiglitazone (3 to 10 μmol/L) is 100% and the luciferase activity in the absence of the test compound is 0%. The 50% effective concentration of the test compound (EC50, 50% effect concentration) was calculated by using SAS Preclinical Package Ver5.0 (trade name, manufactured by SAS institute Japan Co., Tokyo, Japan), which is a statistical analysis program.

| SMILES | EC50 [nM] | Emax [%] |
| --- | --- | --- |
| CCCCc1nc(C)n(-c2ccccn2)c(=O)c1Cc1cc(CCC)c(OC(c2ccccc2)c2nnn[nH]2)c(CCC)c1 (stereo not shown) [Example 4, 6-butyl-2-methyl-5-[4-{phenyl(1H-tetrazol-5-yl)methoxy}-3,5-dipropylbenzyl]-3-(pyridin-2-yl)pyrimidin-4(3H)-one] | 1720 | – |
| CCCc1cc(Cc2c(CC)nc(C)n(-c3ccccn3)c2=O)cc(CCC)c1OC(C(=O)O)c1ccccc1 (stereo not shown) [Example 3] | 3520 | – |
| CCCCc1nc(C)n(-c2ccccn2)c(=O)c1Cc1cc(CCC)c(OC(C(=O)NS(C)(=O)=O)c2ccccc2)c(CCC)c1 (stereo not shown) [Example 6, 2-[4-[{4-butyl-2-methyl-6-oxo-1-(pyridin-2-yl)-1,6-dihydropyrimidin-5-yl}methyl]-2,6-dipropylphenoxy]-N-(methylsulfonyl)-2-phenyl acetoamide] | 3190 | – |
| CCCCc1nc(C)n(-c2ccccn2)c(=O)c1Cc1cc(CCC)c(OC(C(=O)O)c2ccccc2Cl)c(CCC)c1 (stereo not shown) [Example 7] | 3460 | 23.3 |
| CCCCc1nc(C)n(-c2ccccn2)c(=O)c1Cc1cc(CCC)c(OC(c2ccccc2)c2noc(=O)[nH]2)c(CCC)c1 (stereo not shown) [Example 5, 3-[[4-[{4-butyl-2-methyl-6-oxo-1-(pyridin-2-yl)-1,6-dihydropyrimidin-5-yl}methyl]-2,6-dipropylphenoxy](phenyl)methyl]-1,2,4-oxadiazol-5(4H)-one] | 1190 | 35.1 |
| CCCc1cc(Cc2c(CCC)nc(C)n(-c3ccccn3)c2=O)cc(CCC)c1OC(C(=O)O)c1ccccc1 (stereo not shown) [Example 2, 2-[4-[{2-methyl-6-oxo-4-propyl-1-(pyridin-2-yl)-1,6-dihydropyrimidin-5-yl}methyl]-2,6-dipropylphenoxy]-2-phenylacetic acid] | 3910 | 25.2 |

Further lines, results first:

| EC50 [nM] | Emax [%] | SMILES |
| --- | --- | --- |
| 2490 | – | CCCCc1nc(C)nc(OCc2ccccc2)c1Cc1cc(CCC)c(OC(C(=O)O)c2ccccc2)c(CCC)c1 (stereo not shown) [Example 29] |
| 3290 | 25.6 | CCCCc1nc(C)n(-c2ccccn2)c(=O)c1Cc1cc(CCC)c(OC(C(=O)O)c2ccccc2OC)c(CCC)c1 (stereo not shown) [Example 10, 2-[4-[{4-butyl-2-methyl-6-oxo-1-(pyridin-2-yl)-1,6-dihydropyrimidin-5-yl}methyl]-2,6-dipropylphenoxy]-2-(2-methoxyphenyl)acetic acid] |
| 650 | 49.9 | CCCCc1nc(C)n(-c2ncc(OCc3ccccc3)cn2)c(=O)c1Cc1cc(CCC)c(OC(C(=O)O)c2ccccc2)c(CCC)c1 (stereo not shown) [Example 19, 2-[4-[[1-[5-(benzyloxy)pyrimidin-2-yl]-4-butyl-2-methyl-6-oxo-1,6-dihydropyrimidin-5-yl]methyl]-2,6-dipropylphenoxy]-2-phenylacetic acid] |
| 2400 | – | CCCCc1nc(C)nc(OCCOC)c1Cc1cc(CCC)c(OC(C(=O)O)c2ccccc2)c(CCC)c1 (stereo not shown) [Example 32, 2-[4-[{4-butyl-6-(2-methoxyethoxy)-2-methylpyrimidin-5-yl}methyl]-2,6-dipropylphenoxy]-2-phenylacetic acid] |
| 480 | 42.9 | CCCCc1nc(C)n(-c2ccc(OCC)cc2)c(=O)c1Cc1cc(CCC)c(OC(C(=O)O)c2ccccc2)c(CCC)c1 (stereo not shown) [Example 13] |
| 1340 | 39.8 | CCCCc1nc(C)n(-c2ncc(OCCSC)cn2)c(=O)c1Cc1cc(CCC)c(OC(C(=O)O)c2ccccc2)c(CCC)c1 (stereo not shown) [Example 24, 2-[4-[[4-butyl-2-methyl-1-[5-{2-(methylthio)ethoxy}pyrimidin-2-yl]-6-oxo-1,6-dihydropyrimidin-5-yl]methyl]-2,6-dipropylphenoxy]-2-phenylacetic acid] |
| 1210 | – | CCCCc1nc(CCc2ccc(CC)cn2)[nH]c(=O)c1Cc1cc(CCC)c(OC(C(=O)O)c2ccccc2)c(CCC)c1 (stereo not shown) [Example 31] |
| 2020 | 41.4 | CCCCc1nc(C)n(-c2ccccn2)c(=O)c1Cc1cc(CCC)c(OC(C(=O)O)c2cccc(Cl)c2)c(CCC)c1 (stereo not shown) [Example 8, 2-[4-[{4-butyl-2-methyl-6-oxo-1-(pyridin-2-yl)-1,6-dihydropyrimidin-5-yl}methyl]-2,6-dipropylphenoxy]-2-(3-chlorophenyl)acetic acid] |
